From patent US5801162A, “Dermatan sulfate compositions and antithrombotic compositions containing same” (Seikagaku Kogyo Kabushiki Kaisha (Seikagaku Corporation), priority 1993, dated 1998)

Tests used:
[1] = tested on: activation of plasminogen with single-chain t-PA (sc-tPA); conditions: s-2251
Description: (§1) Fifty microliters each of various concentration of DS (BIDS, CCDS) or chondroitin sulfate (control group), 25 μL of 1.6 μM plasminogen and 25 μL of 20 nM of single or two-chain t-PA, and 100 μL of 0.6 mM a synthetic substrate S-2251 (H-D-Val-L-Leu-L-Lys-p-nitroanilide·2HCl) were mixed and the absorbancy at 405 nm was determined every 2 minutes with an automatic microtiter plate reader. The reaction was carried out at 37° C. in a buffer composed of 60 mM TriS-HCl with Tween^RTM 80.
(§2) The initial rate of activation of plasminogen was calculated as follows; the slope of plots of, .LAMBDA.405, an absorbancy at 405 nm at time t to the square of time (Δ.LAMBDA.405 /Δt^2) was divided by 40,000 (Chibber, B. A. K., et al., Biochemistry, 1985, pp. 3429-3434). The stimulation rate was calculated from ratios to DS or chondroitin sulfate free conditions which was made the initial rate 1 (one).

[2] = tested on: activation of plasminogen with two-chain t-PA (tc-tPA); conditions: s-2251
Description: as §1, §2

stimulation rate of activation of plasminogen (ratio to DS or chondroitin sulfate free conditions) [1]: ≤ 2.5 fold
stimulation rate of activation of plasminogen (ratio to DS or chondroitin sulfate free conditions) [2]: ≤ 1.5 fold
Substance: chondroitin sulfate
